Source: article PMC5815522 (Bioorganic & medicinal chemistry, 2016)
“And” between values parts separate entries of the source, which are not always exact repeats. Equal entries are not always repeated. Where two headings read alike, the source gives them in different places.

Legend:
[1] = test system: CD3+ cells of SEB-stimulated PBMCs; format: cell-based, human
[2] = in CH3OH, cited from earlier work; for Quantum yield for fluorescence ΦFL: excitation at 532 nm, ± SD
[3] = ± SD; cited from earlier work
[4] = test system: CD3+ (CD25+) cells; format: cell-based, human
[5] = CH3OH, ± SD; cited from earlier work
[6] = in CH3OH; cited from earlier work
[7] = target: T1, P-gp (Homo sapiens, UniProt P08183); conditions: cited from earlier work; for PPassive: mean of PAB and PBA in the fully inhibited system; for PAB, transport in absorptive direction / PBA, transport in secretory direction / PBA/PAB: no inhibitor; for PAB, transport in absorptive direction (+inh) / PBA, transport in secretory direction (+inh): with inhibitor
T1 sequence (P08183 whole entry): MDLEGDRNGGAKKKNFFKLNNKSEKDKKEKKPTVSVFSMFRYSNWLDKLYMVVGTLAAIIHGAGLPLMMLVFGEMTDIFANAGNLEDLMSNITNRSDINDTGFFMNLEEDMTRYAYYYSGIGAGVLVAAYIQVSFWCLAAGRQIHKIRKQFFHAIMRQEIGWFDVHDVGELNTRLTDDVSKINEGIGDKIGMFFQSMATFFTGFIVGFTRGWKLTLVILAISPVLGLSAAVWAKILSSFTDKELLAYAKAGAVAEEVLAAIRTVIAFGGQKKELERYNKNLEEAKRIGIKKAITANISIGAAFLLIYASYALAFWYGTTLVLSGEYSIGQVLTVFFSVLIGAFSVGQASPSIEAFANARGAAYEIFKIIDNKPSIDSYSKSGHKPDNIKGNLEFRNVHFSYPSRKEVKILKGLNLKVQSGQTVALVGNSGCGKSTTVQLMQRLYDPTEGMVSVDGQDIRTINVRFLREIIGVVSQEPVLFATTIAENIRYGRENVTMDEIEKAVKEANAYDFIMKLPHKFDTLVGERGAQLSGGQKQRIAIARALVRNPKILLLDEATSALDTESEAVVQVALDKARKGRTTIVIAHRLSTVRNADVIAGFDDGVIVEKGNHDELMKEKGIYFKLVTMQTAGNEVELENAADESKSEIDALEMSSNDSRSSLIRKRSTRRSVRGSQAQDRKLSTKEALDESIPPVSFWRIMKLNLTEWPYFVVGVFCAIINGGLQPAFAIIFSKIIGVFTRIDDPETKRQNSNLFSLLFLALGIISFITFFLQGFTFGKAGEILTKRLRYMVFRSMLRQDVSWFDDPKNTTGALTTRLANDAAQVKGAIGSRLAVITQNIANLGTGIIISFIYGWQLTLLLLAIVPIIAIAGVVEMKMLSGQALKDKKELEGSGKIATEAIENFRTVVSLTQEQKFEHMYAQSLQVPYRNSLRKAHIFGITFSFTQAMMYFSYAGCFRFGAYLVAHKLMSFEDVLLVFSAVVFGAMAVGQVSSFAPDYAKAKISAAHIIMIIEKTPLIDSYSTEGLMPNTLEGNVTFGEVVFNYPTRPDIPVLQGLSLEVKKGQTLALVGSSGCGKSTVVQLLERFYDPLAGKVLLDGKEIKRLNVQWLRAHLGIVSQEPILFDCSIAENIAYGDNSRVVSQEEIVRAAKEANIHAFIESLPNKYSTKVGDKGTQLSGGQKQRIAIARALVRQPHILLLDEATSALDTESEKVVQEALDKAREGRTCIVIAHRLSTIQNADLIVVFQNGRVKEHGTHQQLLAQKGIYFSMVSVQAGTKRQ

[8] = test system: CD3+ (CD25−) cells; format: cell-based, human
[9] = test system: HUT-78 cells; experiment: Uptake in presence and absence of verapamil by flow cytometry; format: cell-based, human; conditions: 2 × 10^−7 M selenorhodamine, 1 × 10^−4 M VER, 1 h, mean ± SD
[10] = test system: Colo-26 cells; conditions: P-gp-expressing Colo-26 cells; cited from earlier work
[11] = test system: HUT-78 cells; format: cell-based, human
[12] = target: T1, P-gp; experiment: P-gp transport studies across MDCKII-MDR1 monolayers; conditions: for PPassive: mean of PAB and PBA in the fully inhibited system; for PBA/PAB / PAB, transport in absorptive direction / PBA, transport in secretory direction: no inhibitor; for PAB, transport in absorptive direction / PBA, transport in secretory direction / PAB, transport in absorptive direction (+inh) / PBA, transport in secretory direction (+inh): 5 × 10^−6 M dye, 4.3 mg mL^−1 BSA, ± SD; for PAB, transport in absorptive direction (+inh) / PBA, transport in secretory direction (+inh): with 5 × 10^−6 M inhibitor 15
[13] = test system: CD3+ (resting T cells); format: cell-based, human
[14] = Steady-state fluorescence spectra and quantum yields in CH3OH; format: physicochemical; conditions: for Quantum yield for fluorescence ΦFL: excitation at 532 nm, ± SD
[15] = format: physicochemical; conditions: air-saturated CH3OH, ± SD
[16] = test system: CD8+ (cytotoxic T cells); format: cell-based, human
[17] = Electronic absorption spectra in MeOH; format: physicochemical; conditions: in CH3OH
[18] = test system: CD4+ (helper T cells); format: cell-based, human
[19] = test system: HUT-78 cells; experiment: Colocalization with organelle reporters by ImageStream imaging flow cytometry; format: cell-based, human; conditions: ± SD

Compound | % survival CD3+ [1] | Quantum yield for fluorescence ΦFL [2] | Fluorescence emission maximum λFL [2] | n-octanol/water partition coefficient log P [3] | % survival CD3+ (CD25+) [4] | Quantum yield for the generation of singlet oxygen Φ(1O2) [5] | Absorption maximum λmax [6] | Molar extinction coefficient ε [6] | % survival CD3+ (CD25−) [8] | ratio of uptake +VER/−VER [9] | ratio of uptake +VER/−VER [10] | % survival HUT-78 [11] | PPassive [12] | PBA/PAB [12] | PAB, transport in absorptive direction [12] | PBA, transport in secretory direction [12] | PAB, transport in absorptive direction (+inh) [12] | PBA, transport in secretory direction (+inh) [12] | Fluorescence emission maximum λFL [14] | Quantum yield for fluorescence ΦFL [14] | also measured
CN1CCC(C)(C)c2cc3c(-c4ccc(C(=S)N5CCCCC5)s4)c4ccc(=[N+](C)C)cc-4[se]c3cc21.[Cl-] [Compd 3] | 21.0 ± 3.2% | 0.008 ± 0.001 | 634 nm | 1.61 ± 0.06 | 9.2 ± 1.0% | 0.44 ± 0.03 | 608 nm | 81100 M⁻¹ cm⁻¹ | 29.1 ± 5.2% | 1.27 ± 0.19 | 1.9 | 8.5 ± 1.2% | – | – | – | – | – | – | – | – | PPassive [7]: ~2 ×10^−9 m s^−1; PAB, transport in absorptive direction [7]: 1.9 ± 0.5 ×10^−9 m s^−1; PBA, transport in secretory direction [7]: 29 ×10^−9 m s^−1 and 29 ± 3 ×10^−9 m s^−1; PBA/PAB [7]: 15; PAB, transport in absorptive direction (+inh) [7]: 1.7 ± 0.2 ×10^−9 m s^−1; PBA, transport in secretory direction (+inh) [7]: 1.8 ± 0.1 ×10^−9 m s^−1
CN1CCC(C)(C)c2cc3c(-c4ccc(C(=O)N5CCCCC5)s4)c4ccc(=[N+](C)C)cc-4[se]c3cc21.[Cl-] [Compd 4] | 26.6 ± 4.6% | 0.009 ± 0.001 | 634 nm | 2.23 ± 0.04 | 17.4 ± 1.7% | 0.48 ± 0.03 | 609 nm | 87300 M⁻¹ cm⁻¹ | 32.3 ± 6.0% | 1.33 ± 0.04 | 5.1 | 6.7 ± 1.2% | – | – | – | – | – | – | – | – | PPassive [7]: ~6 ×10^−9 m s^−1; PAB, transport in absorptive direction [7]: 0.9 ± 0.3 ×10^−9 m s^−1; PBA, transport in secretory direction [7]: 164 ×10^−9 m s^−1 and 164 ± 4 ×10^−9 m s^−1; PBA/PAB [7]: 182; PAB, transport in absorptive direction (+inh) [7]: 1.0 ± 0.1 ×10^−9 m s^−1; PBA, transport in secretory direction (+inh) [7]: 11.1 ± 0.2 ×10^−9 m s^−1
S=C(c1ccc(C2=c3cc4c5c(c3[Se]c3c2cc2c6c3CCCN6CCC2)CCC[N+]=5CCC4)s1)N1CCCCC1.[Cl-] [Compd 5, 9-(5-(piperidylcarbamothioyl)thiophen-2-yl)-2,3,6,7,12,13,16,17-octahydro-[1H,5H,11H,15H]-10-selenoxantheno[2,3,4-ij:5,6,7-i′j′]diquinolizin-18-ium chloride] | 12.1 ± 2.6% | 0.010 ± 0.002 | 660 nm | 4.1 ± 0.2 | 4.8 ± 1.0% | 0.51 ± 0.03 | 626 nm | 99000 M⁻¹ cm⁻¹ | 17.1 ± 4.3% | 1.17 ± 0.13 | 2.9 | 2.0 ± 0.9% | <1 ×10^−9 m s^−1 | 57 | 0.3 ± 0.3 ×10^−9 m s^−1 | 18 ×10^−9 m s^−1 | 0.51 ± 0.3 ×10^−9 m s^−1 | 0.57 ± 0.1 ×10^−9 m s^−1 | – | – | –
O=C(c1ccc(C2=c3cc4c5c(c3[Se]c3c2cc2c6c3CCCN6CCC2)CCC[N+]=5CCC4)s1)N1CCCCC1.[Cl-] [Compd 6, 9-(5-(piperidylcarbamoyl)thiophen-2-yl)-2,3,6,7,12,13,16,17-octa-hydro[1H,5H,11H,15H]-10-selenoxantheno-[2,3,4-ij:5,6,7-i′j′]diquinolizin-18-ium chloride] | 65% | 0.012 ± 0.001 | 660 nm | 3.71 ± 0.08 | 37.4 ± 3.2% | 0.64 ± 0.03 | 626 nm | 135000 M⁻¹ cm⁻¹ | – | 1.13 ± 0.08 | 7.6 | 9.3 ± 2.7% | ~2 ×10^−9 m s^−1 | 37 | 2.1 ± 0.1 ×10^−9 m s^−1 | 78 ×10^−9 m s^−1 | 0.24 ± 0.1 ×10^−9 m s^−1 | 4.8 ± 0.1 ×10^−9 m s^−1 | – | – | % survival of the CD3+, CD4+, and CD8+ populations [13]: 62–78%; % of HUT-78 cells to which the photosensitizer was phototoxic [11]: > 90% and 91%
C[N+]1=c2cc3c(cc2C(C)(C)CC1)=C(c1ccc(C(=S)N2CCCCC2)s1)c1cc2c4c(c1[Se]3)CCCN4CCC2.[Cl-] [Compd 7] | 5.7 ± 2.6% | – | – | – | 2.6 ± 0.9% | – | – | – | – | – | – | 5.1 ± 0.9% | <1 ×10^−9 m s^−1 | 20 | 0.44 ± 0.1 ×10^−9 m s^−1 | 8.8 ×10^−9 m s^−1 and 8.8 ± 0.3 ×10^−9 m s^−1 | 0.46 ± 0.1 ×10^−9 m s^−1 | 0.32 ± 0.2 ×10^−9 m s^−1 | 650 nm | 0.008 ± 0.001 | Quantum yield for the generation of singlet oxygen Φ(1O2) [15]: 0.54 ± 0.03; % survival CD8+ [16]: 0 ± 0%; Absorption maximum λmax [17]: 620 nm; Molar extinction coefficient ε [17]: 92000 M⁻¹ cm⁻¹; % survival CD4+ [18]: 0 ± 0%
C[N+]1=c2cc3c(cc2C(C)(C)CC1)=C(c1ccc(C(=O)N2CCCCC2)s1)c1cc2c4c(c1[Se]3)CCCN4CCC2.[Cl-] [Compd 8] | 10.3 ± 1.4% | – | – | – | 5.0 ± 0.9% | – | – | – | – | – | – | 6.0 ± 0.2% | ~1 ×10^−9 m s^−1 | 48 | 1.4 ± 0.8 ×10^−9 m s^−1 | 66 ×10^−9 m s^−1 and 66 ± 10 ×10^−9 m s^−1 | 0.18 ± 0.1 ×10^−9 m s^−1 | 2.8 ± 0.2 ×10^−9 m s^−1 | 650 nm | 0.009 ± 0.001 | Quantum yield for the generation of singlet oxygen Φ(1O2) [15]: 0.64 ± 0.03; Absorption maximum λmax [17]: 620 nm; Molar extinction coefficient ε [17]: 110000 M⁻¹ cm⁻¹
CN1CCC(C)(C)c2cc3c(cc21)[Se]c1cc2c(cc1=C3c1ccc(C(=S)N3CCCCC3)s1)C(C)(C)CC[N+]=2C.[Cl-] [Compd 9] | 9.2 ± 2.2% | – | – | – | 7.0 ± 0.7% | – | – | – | – | – | – | 8.1 ± 4.1% | <1 ×10^−9 m s^−1 | 4 | – | 6.3 ×10^−9 m s^−1 and 6.3 ± 1.2 ×10^−9 m s^−1 | 0.51 ± 0.1 ×10^−9 m s^−1 | 0.13 ± 0.1 ×10^−9 m s^−1 | 645 nm | 0.006 ± 0.001 | Quantum yield for the generation of singlet oxygen Φ(1O2) [15]: 0.64 ± 0.03; % survival CD8+ [16]: 0 ± 0%; Absorption maximum λmax [17]: 614 nm; Molar extinction coefficient ε [17]: 93000 M⁻¹ cm⁻¹; % survival CD4+ [18]: 0 ± 0%
CN1CCC(C)(C)c2cc3c(cc21)[Se]c1cc2c(cc1=C3c1ccc(C(=O)N3CCCCC3)s1)C(C)(C)CC[N+]=2C.[Cl-] [Compd 10] | 22.2 ± 2.9% | – | – | – | 12.5 ± 0.4% | – | – | – | 29.8 ± 5.6% | – | – | 5.4 ± 0.8% | ~2 ×10^−9 m s^−1 | 36 | 1.8 ± 1 ×10^−9 m s^−1 | 65 ×10^−9 m s^−1 and 65 ± 6 ×10^−9 m s^−1 | 0.51 ± 0.1 ×10^−9 m s^−1 | 4.0 ± 0.7 ×10^−9 m s^−1 | 645 nm | 0.007 ± 0.001 | Quantum yield for the generation of singlet oxygen Φ(1O2) [15]: 0.95 ± 0.03; Absorption maximum λmax [17]: 614 nm; Molar extinction coefficient ε [17]: 105000 M⁻¹ cm⁻¹
MitoTracker Red [Compd 17] | – | – | – | – | – | – | – | – | – | – | – | – | – | – | – | – | – | – | – | – | mean bright detail similarity score with 18 (LYS) ([19]; lysosome-specific reporter LysoTracker): 0.6 ± 0.4; mean bright detail similarity score with 16 (MTG) ([19]; mitochondrial reporter MitoTracker Green): 3.1 ± 0.7
